Experimental data as given in US7935708B2, “Dihydropyrazolopyrimidinone derivatives” (MSD K.K., priority 2006, dated 2011).

Tests used:
[1] = test system: Cdc2 (Cdk1) tyrosine 15 phosphorylation in NCI-H1299 cells; assay: Cdc2 (Cdk1) tyrosine 15-phosphorylation-inhibitory effect in camptothecin-treated NCI-H1299 cells (ELISA); format: cell-based; settings: Homo sapiens, camptothecin 200 nM 16 hours, then test compound with nocodazole 8 hours, read-out: Cdc2-Y15 Phosphorylation-Inhibitory Effect (H1299, + camptothecin) (EC50)
Source text: Pharmaceutical Text 2 (Method of Determining Drug Potency in Cells (Cdc2 (Cdk1) Tyrosine 15-Phosphorylation-Inhibitory Effect))
Fetal bovine serum (FBS) was obtained from Morgate; media RPMI1640 and DMEM were from Invitrogen; camptothecin was from Sigma; gemcitabine was from Nippon Eli Lilly; nocodazole and protease inhibitor cocktail were from Sigma; rabbit anti-Cdc2 antibody and mouse anti-Cdc2 antibody were from Santa Cruz Biotechnology; rabbit anti-tyrosine 15-phosphorylated Cdc2 antibody and horseradish peroxidase-labeled anti-mouse IgG antibody were from Cell Signaling Technology; sure blue reserve TMB peroxidase substrate was from Kirkegaard and Perry Laboratories.
Human non-small cell lung cancer cells (NCI-H1299) and human colon cancer cells (WiDr) were obtained from American Type Culture Collection (ATCC).
(§1) c) Method of Effect Determination:
In the method of using NCI-H1299 cells, the cells were suspended in RPMI1640 containing 10% FBS, and the cell suspension was applied to a 96-well Nunclondelta-processed plastic plate (bought from Nunc), in an amount of 2000 cells/100 μL/well, in which the cells were incubated overnight in 5% CO2-95% air at 37° C. Camptothecin was dissolved in dimethylsulfoxide (DMSO), and diluted with RPMI1640 containing 10% FBS, and then this was applied to the plate on which the cells had been previously sowed, in an amount of 50 μL/well in such a manner that the final concentration of camptothecin could be 200 nM. Then, the cells were incubated for 16 hours at 37° C. in 5% CO2-95% air. The test compound was stepwise diluted with DMSO, then diluted with 4000 nM nocodazole-containing RPMI1640 containing 10% FBS, and applied to the plate on which the camptothecin-treated cells had been sowed, in an amount of 50 μL/well. The cells were incubated for 8 hours at 37° C. in 5% CO2-95% air, then the medium was removed, and a cytolytic buffer was added to the plate in an amount of 100 μL/well, shaken at 4° C. for 2 hours, then frozen at −80° C., and melted to give a cell solution. Cdc2 and tyrosine 15-phosphorylated Cdc2 in the cell solution were determined through enzyme-linked immunosorbent assay (ELISA), and the ratio of tyrosine 15-phosphorylated Cdc2 to Cdc2 was calculated to obtain the 50% phosphorylation-inhibitory concentration of the test compound to the cells (EC50, nM). The cytolytic buffer used herein is an aqueous solution containing 20 mM Hepes (pH 7.5), 150 mM sodium chloride, 1 mM disodium ethylenediaminetetraacetate, 0.1% polyoxyethylene (10) octylphenyl ether, 1% protease inhibitor cocktail, 1 mM dithiothreitol, 2 mM sodium orthovanadate, 10 mM sodium fluoride and 10 mM glycerol diphosphate. Cdc2 was determined through ELISA as follows: A rabbit anti-Cdc2 antibody solution, which had been diluted 200-fold with 50 mM carbonate-bicarbonate buffer (pH 9.6), was applied to a 96-well maxisorpimmuno plate (bought from Nunc), in an amount of 50 μL/well, and statically kept overnight at 4° C. so as to fix the antibody on the plate. Next, this was washed three times with phosphate-buffered saline (PBS), and 5% bovine serum albumin-containing PBS (5% BSA/PBS) was added thereto in an amount of 300 μL/well, and statically kept at room temperature for 2 hours, and then again washed three times with PBS. A mouse anti-Cdc2 antibody solution that had been diluted 100-fold with 0.05% polyoxyethylene sorbitan monolaurate and 1% BSA-containing Tris-HCl-buffered saline (1% BSA/TBS-T) was added to it in an amount of 50 μL/well, and the cell solution was added thereto in an amount of 5 μL/well and statically kept overnight at 4° C. Next, this was washed three times with 0.05% polyoxyethylene sorbitan monolaurate and 0.1% BSA-containing Tris-HCl-buffered saline (0.1% BSA/TBS-T), and then a horseradish peroxidase-labeled anti-mouse IgG antibody solution that had been diluted 2000-fold with 1% BSA/TBS-T was added thereto in an amount of 70 μL/well, and statically kept at room temperature for 3 hours. […]

[2] = test system: Human colon cancer cells (WiDr); assay: Checkpoint escape effect in gemcitabine-treated WiDr cells (phosphorylated histone H3-positive cells); format: cell-based; settings: gemcitabine 100 nM 24 hours, then test compound with nocodazole 8 hours
Source text: Pharmaceutical Text 3 (Method of Determining Drug Potency in Cells (Checkpoint-Removing Effect))
Fetal bovine serum (FBS) was obtained from Morgate; DMEM was from Invitrogen; gemcitabine was from Nippon Eli Lilly; nocodazole and 4′,6-diamidino-2-phenylindole were from Sigma; rabbit anti-phosphorylated histone H3 antibody was from Upstate; and fluorescence-labeled (Alexa Fluor 488) anti-rabbit IgG antibody was from Molecular Probe.
Human colon cancer cells (WiDr) were obtained from American Type Culture Collection (ATCC).
as §1
The cells were suspended in DMEM containing 10% FBS, and the cell suspension was applied to a poly-D-lysine-coated 96-well plastic plate (bought from Becton Dickinson) in an amount of 2000 cells/100 μL/well, in which the cells were incubated overnight in 5% CO2-95% air at 37° C. Gemcitabine was dissolved in phosphate-buffered saline (PBS), and diluted with DMEM containing 10% FBS, and then this was applied to the plate on which the cells had been previously sowed, in an amount of 50 μL/well in such a manner that the final concentration of gemcitabine could be 100 nM. Then, the cells were incubated for 24 hours at 37° C. in 5% CO2-95% air. The test compound was stepwise diluted with dimethylsulfoxide, then diluted with 1200 nM nocodazole-containing DMEM containing 10% FBS, and applied to the plate on which the gemcitabine-treated cells had been sowed, in an amount of 50 μL/well. […] Next, this was washed with PBS, and a solution containing 4′,6-diamidino-2-phenylindole that had been diluted with 1% BSA/PBS to have a concentration 10 μg/mL and a fluorescence-labeled (Alexa Fluor 488) anti-rabbit IgG antibody that had been diluted 250-fold was added to it in an amount 50 μL/well, and reacted in a dark place at room temperature for 60 minutes. Finally, this was washed with PBS, and its fluorescence intensity was determined to calculate the ratio of the phosphorylated histone H3-positive cells (cells that had been in a cell division cycle through removal of checkpoint). […]

[3] = test system: Human colon cancer cells WiDr; assay: Tumor growth-inhibitory effect, WiDr implanted subcutaneously in nude rats; format: in vivo, F344/N Jcl-mu nude rats; settings: statement on Table 5
Experimental: Pharmaceutical Test 4 (Tumor Growth-Inhibitory Effect)
Human colon cancer cells WiDr (gotten from ATCC) were implanted into the subcutaneous area of the back of F344/N Jcl-mu nude rats. Eight days after the implantation, gemcitabine (50 mg/kg, Gemzar injection, Eli-Lilly) was intravenously administered to them; and after 24 hours, a test compound was dissolved in a solvent (5% glucose) and given to them through continuous intravenous injection for 8 hours. The tumor volume (0.5×(major diameter)×(minor diameter)^2) was determined on day 0, 3, 6, 10 and 13. Day 0 means the day on which gemcitabine was administered. The relative tumor volume is a relative value, as calculated on the basis of the tumor volume of 1 on day 0. The tumor growth percentage (% T/C) was obtained according to the following formula:
When the tumor volume change from day 0 in the group subjected to test compound administration is more than 0 (>0): % T/C=[(tumor volume change in the test compounds on day 3, 6, 10, 13)/(tumor volume change in the control on day 3, 6, 10, 13)]×100. When the tumor volume change from day 0 in the group subjected to test compound administration is less than 0 (<0): % T/C=[(tumor volume change in the test compounds on day 3, 6, 10, 13)/(tumor volume […])]×100.

Row | SMILES | EC50 [1] [nM] | EC50 [2] [nM] | tumor growth percentage (in words) [3]
1 | CC(C)n1c(=O)c2cnc(Nc3ccc(C4CCN(C)CC4)cc3)nc2n1-c1cccc(C(C)(C)O)n1 [Example 147, 1-[6-(1-hydroxy-1-methylethyl)pyridin-2-yl]-2-isopropyl-6-{[4-(1-methylpiperidin-4-yl)phenyl]amino}-1,2-dihydro-3H-pyrazolo[3,4-d]pyrimidin-3-one] | 100 | 110 | 
2 | Nc1ccn([C@@H]2O[C@H](CO)[C@@H](O)C2(F)F)c(=O)n1 [Gemcitabine, gemcitabine] |  |  | reduced the tumor growth percentage
